This note sets out measurements from patent US8481678B2, “Peptide-based tooth whitening reagents” (E I du Pont de Nemours and Company, priority 2009, dated 2013).

Where no end group is shown, it is not given here. The star is where a group is joined. Biotin = O=C1N[C@H]2[C@H](CS[C@H]2CCCCC(=O)*)N1

Experiment [1] deals with pellicle-coated bovine enamel. The experiment in a line: Phage ELISA on pellicle-coated bovine enamel, candidates from brushed 8 hr pellicle, Example 17. The class given is binding, human. As to conditions: phage ELISA screened with 30 min in vivo pellicle; normalized to DenP3; no-phage control 0.094. The method, then: A total of 18 selected phage candidates were used in a phage ELISA Experiment. Purified phage lysates were used for binding to pellicle-coated bovine enamel using an anti-M13 phage antibody conjugated to horseradish-peroxidase, followed by the addition of chromogenic agent TMB, obtained from Pierce Biotechnology (Rockford, Ill.). The plates were read at A450nm.
The wells were rinsed 2 times with wash buffer consisting of PBST. The wells were filled with 1 mL of […] purified phage stock which was prepared by diluting in blocking buffer. […] The non-binding phage was removed by washing 5 times with PBST. Then, 500 μL of horseradish peroxidase/anti-M13 antibody conjugate (Amersham USA, Piscataway, N.J.), diluted 1:500 in the blocking buffer, was added and incubated for 45 min at room temperature. The conjugate solution was removed and was washed 5 times with PBST.
A general note: In an ELISA, binding on a coated surface is turned into a signal by an enzyme label.

The test system of experiment [2] is pellicle coated bovine enamel. Nature of the experiment: Phage ELISA on pellicle-coated bovine enamel (30 min in vivo pellicle), Example 13. The class given is binding, human. As to conditions: 10^11 pfu, 30 min at 37° C., normalized to an internal control. Here is the method: A total of 29 selected phage candidates from Table 14 were used in phage ELISA Experiment to determine binding affinity and coverage of each phage on pellicle substrates. Purified phage lysates were used for binding to pellicle coated bovine enamel using an anti-M13 phage antibody conjugated to horseradish-peroxidase, followed by the addition of chromogenic agent TMB, obtained from Pierce Biotechnology (Rockford, Ill.). The plates were read at A450nm.
The wells were filled with 1 mL of 10^11 pfu purified phage stock which was prepared by diluting in blocking buffer. […] The non-binding phage was removed by washing 5 times with PBST. […] The conjugate solution was removed and was washed 3 times with PBST.

Experiment [3] relates to pellicle-coated enamel substrates. As to conditions: 20 μM synthetic biotinylated peptide, 30 min at 37° C.; normalized to DenP03; three replicates; no peptide −0.001. The method, then:
A total of 20 synthetic peptides were manufactured using sequences obtained from Table 14. Peptides were obtained from Synbiosci (Livermore, Calif.) and included an additional SSRP sequence (SEQ ID NO: 151) at the N-terminus and biotin labeled lysine at the C-terminus.
Enamel substrates were cut to approx. 7 mm squares and mounted on wax mounting for incubation in the mouth for 30 min to form a pellicle coated surface. The pellicle-coated enamel substrates were removed from the wax backing and placed in well plates with the pellicle surface exposed as in Example 1. Each pellicle-coated substrate was incubated for 1 h at room temperature (˜22° C.) with 1 mL of blocking buffer, consisting of 1 mg/mL BSA in PBST (Pierce BupH™ #28372 with 0.1% TWEEN® 20). The blocking buffer was removed by aspirating the liquid out of each well. The tube was rinsed 2 times with wash buffer consisting of PBST. The wells were filled with 500 μL of 20 μM peptide solution which was prepared by diluting in blocking buffer. The samples were incubated for 30 min with slow shaking at 37° C. The non-binding peptide was removed by washing 6 times with PBST. Then, 500 μL of horseradish peroxidase/streptavidin conjugate (Pierce #22127), diluted 1:2000 in PBST, was added and incubated for 1 h at room temperature. The conjugate solution was removed and was washed 4 times with PBST.
Each enamel substrate was removed from the well and washed again in a 15-mL test tube with 10 mL of PBST. Each enamel substrate was then mounted in a clean well plate with only the enamel surface exposed. A 1:1 solution of TMB substrate and H2O2 (200 μL), obtained from Pierce Biotechnology (Rockford, Ill.) was added to each well and the color was allowed to develop for between 10 to 20 min, typically for 15 min, at room temperature (˜22° C.). Then, 100 μL of solution from each well was transferred to a 96-well reading plate containing stop solution (100 μL of 2 M H2SO4) in each well. The A450 was measured using a microplate spectrophotometer (Molecular Devices, Sunnyvale, Calif.). […] Each sequence was tested with three replicate enamel coated pellicle substrates.

The nature of experiment [4]: Whitening of tea-stained bovine enamel with peptide reagent and cellulose acetate-coated TiO2 (CIELAB colour). Further details: key to L* / a* / b*: CIELAB coordinates: L* lightness, a*/b* chromaticity (D65 illuminant); key to ΔE: ΔE = ((ΔL*)²+(Δa*)²+(Δb*)²)^½ vs tea-stained baseline. The method, then: The peptide-based reagent comprising multiple tooth-binding peptides, spacers, and cellulose acetate-binding peptide sequences was prepared as described in Example 8.
The cellulose acetate-coated titanium dioxide was prepared as described in Example 10. The peptide-based reagent described in Example 8 (SEQ ID NO:116) was used. The peptide-based reagent was diluted with 25 mM Tris-HCl buffer including 150 mM NaCl at pH 7.5 to give a final concentration of 5 μM. The cellulose acetate-coated titanium dioxide dispersion described in Example 10 was further diluted from 20% solids to 0.25% solids in 25 mM Tris-HCl buffer at pH 7.5.
Bovine Teeth (SE Dental, Baton Rouge, La.) were used as model substrate to test with the engineered peptide-based reagent designed to bind to tooth enamel (SEQ ID NO:116). The teeth were prepared by cleaning in detergent and then disinfecting in 70% Ethanol prior to use. Each clean tooth was measured for color using an X-RITE® SP64 Spectrometer to collect a reflectance spectrum and CIELAB color coordinates, L*, a* and b*. A staining solution was made with 100 mL of boiling water exposed to 1 Lipton tea bag for 5 minutes. After the solution cooled to room temperature, each tooth was allowed to incubate in the staining solution for approximately 3 days. The teeth were removed and rinsed with water and dried. Color measurement was obtained for each tooth.
The stained bovine enamel substrates were exposed to either the 5 μM solution of peptide or as a control, the buffer used to make the peptide solution. This exposure was for 30 minutes with gentle agitation in a vortex mixer. Following peptide binding, the teeth were removed and rinsed in buffer and placed in a 0.25% solution of cellulose acetate coated titanium dioxide for 30 minutes. The teeth were removed, rinsed in buffer, blotted dry and measured for color using the X-RITE® spectrometer. The teeth were placed back in the same pigment solutions for an additional 2.5 hr and removed, rinsed and measured again.
The color intensity at each step mentioned above (e.g., to determine the change in tooth whitening) was measured using a X-RITE® SP64™ Sphere Spectrophotometer (X-Rite, Inc., Grandville, Mich.), by placing the front of the bovine tooth (treated or control) sample into a sample holder and calculating L*, a* and b* parameters representing the photometer response using a standard D65 illuminant. An initial baseline values of L*, a* and b* were measured prior to peptide treatment for the tea-stained bovine samples. All measurements are the average of three individual determinations. Delta E values are calculated using equation 1 below: Delta E=((L*1−L*2)^2+(a1−a2)^2+(b1−b2)^2)^1/2 (1) where L*=the lightness variable and a* and b* are the chromaticity coordinates of CIELAB colorspace as defined by the International Commission of Illumination (CIE) (Minolta, Precise Color Communication—Color Control From Feeling to Instrumentation, Minolta Camera Co., 1996). Larger Delta E value is indicative of an increase in whiteness. In one embodiment, a larger Delta E for the treatment group (peptide-based reagent+polymer coated white colorant) versus the Delta E of the peptide-free control is used to determine the relative increase in whiteness.

The mark [5] stands for this setting: after additional 2.5 hr in CA-TiO2.

Consider GGMGALESYRQWNHLA [DenP113], for which the “O.D. at 450 nm (normalized)” value in experiment [1] is 1.348.
The same measure, in the same setting: as for WHEPHQFSGENTDYSSSMGT [DenP109], the figure is 0.716; as for DGYKLQTSLDWQMWNP [DenP111], 1.051.
The same measure, in the same setting: as for GVHQYSRPTVPSYLWTSGQH [DenP103], the figure is 0.879; as for QFNQTSHSFMHGTSGYVPGK [DenP105], 0.470.
Turning to GINKGQRPPWESWHEN [DenP114], the “O.D. at 450 nm (normalized)” value in experiment [1] was determined as 0.703.
Turning to “TTYHYKNIYQESYQQRNPAV (Synthetic oral-surface binding peptide) [DenP 03]”, the entries for the “O.D. at 450 nm (normalized)” value in experiment [1] and in experiment [2] were 1.000 and 2.495, respectively.
Regarding GYQPHYVDHTIGWQPMIRPN [DenP104], the “O.D. at 450 nm (normalized)” value in experiment [1] was 0.790.
As to “SSRPQVPDYLSPTHQKKAFLEIPTK(Biotin) [DenP29-A]”, the “O.D. at 450 nm (normalized)” value in experiment [3] is recorded as 0.468.
With “SSRPHDPNHLTHQARTIYRNANHTK(Biotin) [DenP23-A]”, the “O.D. at 450 nm (normalized)” value in experiment [3] is on record as 0.850.
As to EFYPFAEVPPEKSGIGRQVF [DenP102], the “O.D. at 450 nm (normalized)” value in experiment [1] amounted to 0.520.
On to “SSRPNGNNHTDIPNRSSYTGGSFAK(Biotin) [DenP1-A]”, for which the “O.D. at 450 nm (normalized)” value in experiment [3] came to 0.154.
As to THGNKHQSWTYPSEINHKNY [DenP108], the “O.D. at 450 nm (normalized)” value in experiment [1] is recorded as 1.149.
Still for that read-out and setting: as for SFSWHRGDWELGHQSKTMGM [DenP106], the figure is 1.524.
For the molecule “SSRPVNPNWVETQALHQPPGNTK(Biotin) [DenP20-A]”, the “O.D. at 450 nm (normalized)” value in experiment [3] is recorded as 0.590.
Turning to SMWHDITKRYRNPSEMVSAY [DenP107], the “O.D. at 450 nm (normalized)” value in experiment [1] worked out at 0.726.
On the same count and under the same terms, as for NLHSPWPSHAAHHWST [DenP118], the figure is 0.641.
Take “SSRPTTGSSSQADTSASMSIVPAHK(Biotin) [DenP17-A]”: in experiment [3], the “O.D. at 450 nm (normalized)” value is 0.143.
As to FPSKWYNHHRHITGHV [DenP112], the “O.D. at 450 nm (normalized)” value in experiment [1] worked out at 0.413.
For the molecule SSRPDLGTFPNRTLKMAAHK(Biotin) [DenP11-A], the “O.D. at 450 nm (normalized)” value in experiment [3] stood at 0.454.
On the same count and under the same terms, in the case of SSRPQAAQVHMMQHSRPTTK(Biotin) [DenP13-A] it was 0.699; in that of “SSRPEFPYYNDNPPNPERHTLRK(Biotin) [DenP7-A]”, 0.356.
In the case of “SSRPTYQGVPSWPAVIDDAIRRK(Biotin) [DenP19-A]”, the “O.D. at 450 nm (normalized)” value in experiment [3] came out at 0.712.
As to MPGHQESIKVQNWNRV [DenP117], in experiment [1], the “O.D. at 450 nm (normalized)” value was 0.433.
With HDHLSWWGQFDRQNLL [DenP116], the “O.D. at 450 nm (normalized)” value in experiment [1] is 1.055.
In the case of AIEYQHSATTPWTMRTRLPP [DenP101], the “O.D. at 450 nm (normalized)” value in experiment [1] is 0.467.
On to “SSRPTMTNHVYNSYTEKHSSTHRSK(Biotin) [DenP2-A]”, for which, in experiment [3], the “O.D. at 450 nm (normalized)” value stood at 0.273.
Still for that read-out and setting: in the case of SSRPFDGIGLGTATRHQNRK(Biotin) [DenP12-A] it was 0.475.
With GYGQYVSQQTWAHSNK [DenP115], in experiment [1], the “O.D. at 450 nm (normalized)” value is listed as 0.501.
Regarding “SSRPGPQHVLMQDTHQGYAFDNK(Biotin) [DenP16-A]”, the “O.D. at 450 nm (normalized)” value in experiment [3] is recorded as 0.309.
For NQQMKLVPQHWHRAQP [DenP119], in experiment [1], the “O.D. at 450 nm (normalized)” value is 1.051.
“SSRPELDHDSRHYMNGLQRKVTK(Biotin) [DenP15-A]”: the “O.D. at 450 nm (normalized)” value in experiment [3] stood at 0.460.
As to “SSRPYLLPKDQTTAPQVTPIVQHKK(Biotin) [DenP5-A]”, in experiment [3], the “O.D. at 450 nm (normalized)” value was 0.462.
For the molecule “SSRPSEARARTFNDHTTPMPIIK(Biotin) [DenP14-A]”, the “O.D. at 450 nm (normalized)” value in experiment [3] is 0.269.

B1: Engineered Peptide: recombinant triblock reagent: two tooth-binding peptides (SEQ 108), spacers, two cellulose acetate-binding peptides (SEQ 118), His-tag; applied with cellulose acetate-coated TiO2 (protein)
chain: PHMASMTGGQQMGSYSETPNDQKPNPHYKVSGTKGPEEAAKKEEAAKKPAYSETPNDQKPNPHYKVSGTKGSGGGGSGSGGGGSVRPNLHRKAKAKPDHKQSENRKVPFYSHGSSGGGGVRPNLHRKAKAKPDHKQSENRKVPFYSHGSSGGGHHHHHH
modifications: applied with cellulose acetate-coated TiO2; Synthetic peptide-based tooth whitening reagent
In the case of B1, the ΔE is given as 6.68 in experiment [4] (5 μM peptide 30 min + 0.25% CA-TiO2 30 min, versus tea-stained baseline, buffer control 3.25) and 8.73 in experiment [4] (after additional 2.5 hr in CA-TiO2, versus tea-stained baseline, buffer control 3.80). Further, the “a*” value in experiment [4] (5 μM peptide 30 min + 0.25% CA-TiO2 30 min, tea-stained baseline 3.96396) is on record as 1.635; in experiment [4] (setting [5]) it was 1.496. Further, the “b*” value in experiment [4] (5 μM peptide 30 min + 0.25% CA-TiO2 30 min, tea-stained baseline 22.7952) is given as 18.0418; in experiment [4] (setting [5]), 18.0851. Also, the “L*” value in experiment [4] (5 μM peptide 30 min + 0.25% CA-TiO2 30 min, tea-stained baseline 67.0271) came to 71.1068; in experiment [4] (setting [5]), 73.9558.
